Paper PMC2996881 (Biochemistry, 2010)

Key:
[1] = target: T1, CgTHI6 (Nakaseomyces glabratus, UniProt Q6FV03); experiment: X-ray crystal structure; format: binding; settings: ThiM (C-terminal) domain ATP site; Mg2+
T1 sequence (Q6FV03 1-540): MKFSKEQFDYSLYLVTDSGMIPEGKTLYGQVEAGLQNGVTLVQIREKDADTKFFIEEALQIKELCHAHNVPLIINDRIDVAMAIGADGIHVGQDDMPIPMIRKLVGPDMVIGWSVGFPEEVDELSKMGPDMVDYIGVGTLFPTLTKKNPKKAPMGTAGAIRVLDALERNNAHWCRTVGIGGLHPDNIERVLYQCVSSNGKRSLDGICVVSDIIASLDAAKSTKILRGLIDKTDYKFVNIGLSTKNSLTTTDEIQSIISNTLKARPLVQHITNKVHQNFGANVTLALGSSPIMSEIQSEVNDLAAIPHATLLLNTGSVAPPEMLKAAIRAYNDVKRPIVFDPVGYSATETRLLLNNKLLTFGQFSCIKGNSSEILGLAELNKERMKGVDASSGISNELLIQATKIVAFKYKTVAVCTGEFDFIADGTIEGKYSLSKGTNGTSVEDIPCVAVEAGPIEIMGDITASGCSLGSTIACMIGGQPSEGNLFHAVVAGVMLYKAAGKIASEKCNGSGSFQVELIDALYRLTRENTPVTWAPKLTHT

[2] = target: T1, CgTHI6; experiment: HPLC of Thz-P formation at […] nm; format: biochemical; settings: ThiM activity; 2 mM ATP, 1.2 mM Thz, 2 mM MgSO4, room temperature, 2 h
[3] = target: T1, CgTHI6; experiment: HPLC of ThMP formation at […] nm; format: biochemical; settings: TPS activity; 1 mM HMP-PP, 1.2 mM Thz, 2 mM ATP, 2 mM MgSO4, room temperature, 2 h

`Nc1ncnc2c1ncn2[C@@H]1O[C@H](COP(=O)(O)OP(=O)(O)CP(=O)(O)O)[C@@H](O)[C@H]1O` [AMP-PCP] was tested, and the “X-ray crystal structure (soaked, 3.3 A with Thz; 2.6 A with ThMP)” value [1] was “The ATP binding site is inferred from the complex containing the non-hydrolizable ATP analogue, AMP-PCP”.
`Nc1ncnc2c1ncn2[C@@H]1O[C@H](COP(=O)(O)OP(=O)(O)OP(=O)(O)O)[C@@H](O)[C@H]1O` [ATP] was tested, and the “HPLC of Thz-P formation at 261 nm” value [2] was “the purified protein was incubated with Thz and ATP, formation of Thz-P was noted”.
In the case of `Cc1ncc(COP(=O)(O)OP(=O)(O)O)c(N)n1` [HMP-PP, 4-amino-5-hydroxymethyl-2-methylpyrimidine pyrophosphate], the “HPLC of ThMP formation at 261 nm” value [3] is reported as “Incorporation of HMP-PP in the same reaction resulted in the production of ThMP”.
